Results published in US6355799B1, “Substituted benzene compounds, process for their preparation, and herbicidal and defoliant compositions containing them” (ISK Americas Incorporated, priority 1997, dated 2002).

Key:
Format in all cases: in vivo
[1] = system: ivyleaf morningglory (Ipomoea hederacea, IPOHE); test: Pre-emerge test, greenhouse herbicide activity screening; conditions: pre-emerge, 14 days after application, rating scale 0-100
Method in brief: (§1)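 Fourteen days after spraying, crop and weed injury was graded visually from 0, no effect, to 100, every plant dead. Test substances were dissolved in acetone and applied at 15–1000 g ai/ha with a flat-fan nozzle. Application was either pre-emergence, one day after sowing, or post-emergence at the 2–3 leaf stage.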

[2] = system: large crabgrass (Digitaria sanguinalis, DIGSA); test: as above; conditions: pre-emerge, 14 days after application, rating scale 0-100
Method in brief: as §1

[3] = system: lambsquarters (Chenopodium album, CHEAL); test: as above; conditions: pre-emerge, 14 days after application, rating scale 0-100
Method in brief: as §1

[4] = system: sicklepod (Cassia obtusifolia, CASOB); test: as above; conditions: pre-emerge, 14 days after application, rating scale 0-100
Method in brief: as §1

[5] = system: velvetleaf (Abutilon theophrasti, ABUTH); test: as above; conditions: pre-emerge, 14 days after application, rating scale 0-100
Method in brief: as §1

[6] = system: green foxtail (Setaria viridis, SETVI); test: as above; conditions: pre-emerge, 14 days after application, rating scale 0-100
Method in brief: as §1

[7] = system: johnsongrass (Sorghum halepense, SORHA); test: as above; conditions: pre-emerge, 14 days after application, rating scale 0-100
Method in brief: as §1

[8] = system: barnyardgrass (Echinochloa crus-galli, ECHCG); test: as above; conditions: pre-emerge, 14 days after application, rating scale 0-100
Method in brief: as §1

[9] = system: field corn (Zea mays L., var. Dekalb 535, CORN); test: Post-emerge test, crop safety; conditions: post-emerge, 14 days after application, rating scale 0-100
Method in brief: as §1

[10] = system: upland rice (Oryza sp., var. Tebonnet, RICE); test: Post-emerge test, crop safety; conditions: post-emerge, 14 days after application, rating scale 0-100
Method in brief: as §1

[11] = system: field corn (Zea mays L., var. Dekalb 535, CORN); test: Pre-emerge test, crop safety; conditions: pre-emerge, 14 days after application, rating scale 0-100
Method in brief: (§2)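 Sandy loam pots; pre-emerge: sown 1 d pre-spray, surface-watered after, then bottom-watered. Post-emerge: sown 8–21 d before, 2–3 leaf stage, + 0.25% v/v NIS, bottom-watered. Acetone, 187 l/ha track spray, 15–1000 g ai/ha. 0–100 injury score, day 14.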

[12] = system: upland rice (Oryza sp., var. Tebonnet, RICE); test: Pre-emerge test, crop safety; conditions: pre-emerge, 14 days after application, rating scale 0-100
Method in brief: as §2

[13] = system: redroot pigweed (Amaranthus retroflexus, AMARE); test: Pre-emerge test, greenhouse herbicide activity screening; conditions: pre-emerge, 14 days after application, rating scale 0-100
Method in brief: as §2

[14] = system: ivyleaf morningglory (Ipomoea hederacea, IPOHE); test: Post-emerge test, greenhouse herbicide activity screening; conditions: post-emerge, 14 days after application, rating scale 0-100
Method in brief: as §2

[15] = system: large crabgrass (Digitaria sanguinalis, DIGSA); test: as above; conditions: post-emerge, 14 days after application, rating scale 0-100
Method in brief: as §2

[16] = system: lambsquarters (Chenopodium album, CHEAL); test: as above; conditions: post-emerge, 14 days after application, rating scale 0-100
Method in brief: as §2

[17] = system: sicklepod (Cassia obtusifolia, CASOB); test: as above; conditions: post-emerge, 14 days after application, rating scale 0-100
Method in brief: as §2

[18] = system: velvetleaf (Abutilon theophrasti, ABUTH); test: as above; conditions: post-emerge, 14 days after application, rating scale 0-100
Method in brief: as §2

[19] = system: redroot pigweed (Amaranthus retroflexus, AMARE); test: as above; conditions: post-emerge, 14 days after application
Method in brief: as §2

[20] = system: green foxtail (Setaria viridis, SETVI); test: as above; conditions: post-emerge, 14 days after application, rating scale 0-100
Method in brief: as §2

[21] = system: johnsongrass (Sorghum halepense, SORHA); test: as above; conditions: post-emerge, 14 days after application, rating scale 0-100
Method in brief: as §2

[22] = system: barnyardgrass (Echinochloa crus-galli, ECHCG); test: as above; conditions: post-emerge, 14 days after application, rating scale 0-100
Method in brief: as §2

[23] = 63 g ai/ha, rating scale 0-100 (0 no damage, 100 complete death)
[24] = 250 g ai/ha, rating scale 0-100

COc1c(Cl)cc(F)c(-n2c(=O)cc(C(F)(F)F)n(C)c2=O)c1Sc1ccc2ccccc2c1 [17-4]
30: phytotoxicity rating AMARE ([13]; 63 g ai/ha)
35: Post-emerge Herbicidal Activity ABUTH (phytotoxicity rating) ([18]; 63 g ai/ha)
60: phytotoxicity rating ABUTH ([5]; 250 g ai/ha)
40: Post-emerge Herbicidal Activity CHEAL (phytotoxicity rating) ([16]; 250 g ai/ha)
20: phytotoxicity rating CHEAL ([3]; 63 g ai/ha) | phytotoxicity rating SETVI ([6]; 250 g ai/ha) | Post-emerge Herbicidal Activity IPOHE (phytotoxicity rating) ([14]; 63 g ai/ha) | Post-emerge Herbicidal Activity CHEAL (phytotoxicity rating) ([16]; 63 g ai/ha) | Post-emerge Herbicidal Activity CASOB (phytotoxicity rating) ([17]; 250 g ai/ha) | Post-emerge Herbicidal Activity AMARE (phytotoxicity rating) [19, 23]
70: phytotoxicity rating CHEAL ([3]; 250 g ai/ha) | Post-emerge Herbicidal Activity ABUTH (phytotoxicity rating) ([18]; 250 g ai/ha) | Post-emerge Herbicidal Activity AMARE (phytotoxicity rating) [19, 24]
80: Post-emerge Herbicidal Activity IPOHE (phytotoxicity rating) ([14]; 250 g ai/ha)
100: phytotoxicity rating AMARE ([13]; 250 g ai/ha)
10: phytotoxicity rating IPOHE ([1]; 250 g ai/ha) | phytotoxicity rating DIGSA ([2]; 250 g ai/ha) | phytotoxicity rating CASOB ([4]; 250 g ai/ha) | phytotoxicity rating RICE ([12]; 250 g ai/ha) | Post-emerge Herbicidal Activity CASOB (phytotoxicity rating) ([17]; 63 g ai/ha)
0: phytotoxicity rating IPOHE ([1]; 63 g ai/ha) | phytotoxicity rating DIGSA ([2]; 63 g ai/ha) | phytotoxicity rating CASOB ([4]; 63 g ai/ha) | phytotoxicity rating ABUTH ([5]; 63 g ai/ha) | phytotoxicity rating SETVI ([6]; 63 g ai/ha) | phytotoxicity rating SORHA ([7]; 63 g ai/ha) | phytotoxicity rating SORHA ([7]; 250 g ai/ha) | phytotoxicity rating ECHCG ([8]; 63 g ai/ha) | phytotoxicity rating ECHCG ([8]; 250 g ai/ha) | Post-emerge Herbicidal Activity CORN (crop damage rating) ([9]; 63 g ai/ha) | Post-emerge Herbicidal Activity CORN (crop damage rating) ([9]; 250 g ai/ha) | Post-emerge Herbicidal Activity RICE (crop damage rating) ([10]; 63 g ai/ha) | Post-emerge Herbicidal Activity RICE (crop damage rating) ([10]; 250 g ai/ha) | phytotoxicity rating CORN ([11]; 63 g ai/ha) | phytotoxicity rating CORN ([11]; 250 g ai/ha) | phytotoxicity rating RICE ([12]; 63 g ai/ha) | Post-emerge Herbicidal Activity DIGSA (phytotoxicity rating) ([15]; 63 g ai/ha) | Post-emerge Herbicidal Activity DIGSA (phytotoxicity rating) ([15]; 250 g ai/ha) | Post-emerge Herbicidal Activity SETVI (phytotoxicity rating) ([20]; 63 g ai/ha) | Post-emerge Herbicidal Activity SETVI (phytotoxicity rating) ([20]; 250 g ai/ha) | Post-emerge Herbicidal Activity SORHA (phytotoxicity rating) ([21]; 63 g ai/ha) | Post-emerge Herbicidal Activity SORHA (phytotoxicity rating) ([21]; 250 g ai/ha) | Post-emerge Herbicidal Activity ECHCG (phytotoxicity rating) ([22]; 63 g ai/ha) | Post-emerge Herbicidal Activity ECHCG (phytotoxicity rating) ([22]; 250 g ai/ha)

COc1c(Cl)cc(F)c(-n2c(=O)cc(C(F)(F)F)n(C)c2=O)c1SCCO [17-5]
60: phytotoxicity rating DIGSA ([2]; 250 g ai/ha) | phytotoxicity rating ABUTH ([5]; 63 g ai/ha)
90: phytotoxicity rating CHEAL ([3]; 63 g ai/ha)
80: phytotoxicity rating AMARE ([13]; 63 g ai/ha) | Post-emerge Herbicidal Activity CHEAL (phytotoxicity rating) ([16]; 250 g ai/ha) | Post-emerge Herbicidal Activity ABUTH (phytotoxicity rating) ([18]; 250 g ai/ha)
20: phytotoxicity rating SORHA ([7]; 250 g ai/ha) | Post-emerge Herbicidal Activity CASOB (phytotoxicity rating) ([17]; 250 g ai/ha)
100: phytotoxicity rating CHEAL ([3]; 250 g ai/ha) | phytotoxicity rating ABUTH ([5]; 250 g ai/ha) | phytotoxicity rating AMARE ([13]; 250 g ai/ha)
50: phytotoxicity rating SETVI ([6]; 250 g ai/ha) | Post-emerge Herbicidal Activity ABUTH (phytotoxicity rating) ([18]; 63 g ai/ha)
30: phytotoxicity rating IPOHE ([1]; 63 g ai/ha) | phytotoxicity rating CASOB ([4]; 250 g ai/ha) | Post-emerge Herbicidal Activity IPOHE (phytotoxicity rating) ([14]; 63 g ai/ha)
35: phytotoxicity rating IPOHE ([1]; 250 g ai/ha)
70: Post-emerge Herbicidal Activity IPOHE (phytotoxicity rating) ([14]; 250 g ai/ha)
0: phytotoxicity rating DIGSA ([2]; 63 g ai/ha) | phytotoxicity rating CASOB ([4]; 63 g ai/ha) | phytotoxicity rating SETVI ([6]; 63 g ai/ha) | phytotoxicity rating SORHA ([7]; 63 g ai/ha) | phytotoxicity rating ECHCG ([8]; 63 g ai/ha) | phytotoxicity rating ECHCG ([8]; 250 g ai/ha) | Post-emerge Herbicidal Activity CORN (crop damage rating) ([9]; 63 g ai/ha) | Post-emerge Herbicidal Activity RICE (crop damage rating) ([10]; 63 g ai/ha) | Post-emerge Herbicidal Activity RICE (crop damage rating) ([10]; 250 g ai/ha) | phytotoxicity rating CORN ([11]; 63 g ai/ha) | phytotoxicity rating CORN ([11]; 250 g ai/ha) | phytotoxicity rating RICE ([12]; 63 g ai/ha) | Post-emerge Herbicidal Activity DIGSA (phytotoxicity rating) ([15]; 63 g ai/ha) | Post-emerge Herbicidal Activity DIGSA (phytotoxicity rating) ([15]; 250 g ai/ha) | Post-emerge Herbicidal Activity SETVI (phytotoxicity rating) ([20]; 63 g ai/ha) | Post-emerge Herbicidal Activity SETVI (phytotoxicity rating) ([20]; 250 g ai/ha) | Post-emerge Herbicidal Activity SORHA (phytotoxicity rating) ([21]; 63 g ai/ha) | Post-emerge Herbicidal Activity SORHA (phytotoxicity rating) ([21]; 250 g ai/ha) | Post-emerge Herbicidal Activity ECHCG (phytotoxicity rating) ([22]; 63 g ai/ha) | Post-emerge Herbicidal Activity ECHCG (phytotoxicity rating) ([22]; 250 g ai/ha)
10: Post-emerge Herbicidal Activity CORN (crop damage rating) ([9]; 250 g ai/ha) | phytotoxicity rating RICE ([12]; 250 g ai/ha) | Post-emerge Herbicidal Activity CASOB (phytotoxicity rating) ([17]; 63 g ai/ha) | Post-emerge Herbicidal Activity AMARE (phytotoxicity rating) [19, 23]
40: Post-emerge Herbicidal Activity CHEAL (phytotoxicity rating) ([16]; 63 g ai/ha) | Post-emerge Herbicidal Activity AMARE (phytotoxicity rating) [19, 24]
